How the values were obtained:
[1] = biological target: T1, Top1-DNA covalent cleavage complexes in HCT116 cells (Homo sapiens, UniProt P11387); experiment: Immunocomplex of enzyme to DNA (ICE) assay; format: cell-based; conditions: HCT116, 25, 50 and 100 μM
T1 construct: endogenous in cells; host or cells: HCT116 (human colon cancer)

[2] = tested on: γH2AX foci in HCT116 cells; experiment: γH2AX detection by immunofluorescence; format: cell-based, human; conditions: HCT116, 1 μM, 3 h
Description: To evaluate the DNA damaging effect of 50 in cancer cells, γH2AX foci were assessed by immunofluorescence microscopy in human […] HCT116 cells. After incubation with the compounds for 3 h, the HCT116 cells were stained with γH2AX antibodies.
HCT116 cells (2×10^4 cells/mL) were grown in culture medium and treated with compounds for 3 h at 37° C. […] Cells were permeabilized with 0.5% Triton X-100 in PBS at 0° C. for 30 min. Dish was blocked with 5% goat serum/PBS at 37° C. for 3 h. […] The dishes were again washed six times with blocking buffer. Digital images were recorded using an LSM710 microscope (Zeiss, Germany) and analyzed with ZEN software.

LOX IMVI = experiment: NCI-60 cytotoxicity; format: cell-based, human; conditions: NCI-60 Melanoma, 48 h
Description: (§1) Cell growth inhibition (GI50 in Table 3) was calculated relative to cells without compound treatment and the time zero control.
(§2) Regarding Table 8, according to the NCI established procedures, the cells were incubated with 67 or 50 for 48 hours and stained with sulforhodamine B dye.

KM12 = experiment: NCI-60 cytotoxicity; format: cell-based, human; conditions: NCI-60 Colon Cancer, 48 h
Description: as §1, §2

IGROV1 = experiment: NCI-60 cytotoxicity; format: cell-based, human; conditions: NCI-60 Ovarian Cancer, 48 h
Description: as §1, §2

K-562 = experiment: NCI-60 cytotoxicity; format: cell-based, human; conditions: NCI-60 Leukemia, 48 h
Description: as §1, §2

SF-539 = experiment: NCI-60 cytotoxicity; format: cell-based, human; conditions: NCI-60 CNS Cancer, 48 h
Description: as §1, §2

COLO 205 = experiment: NCI-60 cytotoxicity; format: cell-based, human; conditions: NCI-60 Colon Cancer, 48 h
Description: as §1, §2

RPMI-8226 = experiment: NCI-60 cytotoxicity; format: cell-based, human; conditions: NCI-60 Leukemia, 48 h
Description: as §1, §2

HS 578T = experiment: NCI-60 cytotoxicity; format: cell-based, human; conditions: NCI-60 Breast Cancer, 48 h
Description: as §1, §2

NCI-H522 = experiment: NCI-60 cytotoxicity; format: cell-based, human; conditions: NCI-60 Non-Small Cell Lung Cancer, 48 h
Description: as §1, §2

UACC-62 = experiment: NCI-60 cytotoxicity; format: cell-based, human; conditions: NCI-60 Melanoma, 48 h
Description: as §1, §2

MDA-MB-231/ATCC = experiment: NCI-60 cytotoxicity; format: cell-based, human; conditions: NCI-60 Breast Cancer, 48 h
Description: as §1, §2

SF-268 = experiment: NCI-60 cytotoxicity; format: cell-based, human; conditions: NCI-60 CNS Cancer, 48 h
Description: as §1, §2

CAKI-1 = experiment: NCI-60 cytotoxicity; format: cell-based, human; conditions: NCI-60 Renal Cancer, 48 h
Description: as §1, §2

A498 = experiment: NCI-60 cytotoxicity; format: cell-based, human; conditions: NCI-60 Renal Cancer, 48 h
Description: as §1, §2

TK-10 = experiment: NCI-60 cytotoxicity; format: cell-based, human; conditions: NCI-60 Renal Cancer, 48 h
Description: as §1, §2

HCT-15 = experiment: NCI-60 cytotoxicity; format: cell-based, human; conditions: NCI-60 Colon Cancer, 48 h
Description: as §1, §2

SK-OV-3 = experiment: NCI-60 cytotoxicity; format: cell-based, human; conditions: NCI-60 Ovarian Cancer, 48 h
Description: as §1, §2

SK-MEL-2 = experiment: NCI-60 cytotoxicity; format: cell-based, human; conditions: NCI-60 Melanoma, 48 h
Description: as §1, §2

PC-3 = experiment: NCI-60 cytotoxicity; format: cell-based, human; conditions: NCI-60 Prostate Cancer, 48 h
Description: as §1, §2

786-0 = experiment: NCI-60 cytotoxicity; format: cell-based, human; conditions: NCI-60 Renal Cancer, 48 h
Description: as §1, §2

OVCAR-4 = experiment: NCI-60 cytotoxicity; format: cell-based, human; conditions: NCI-60 Ovarian Cancer, 48 h
Description: as §1, §2

MALME-3M = experiment: NCI-60 cytotoxicity; format: cell-based, human; conditions: read-out: GI50 (μM) MALME-3M; NCI-60 Melanoma, 48 h
Description: as §1, §2

DU-145 = experiment: NCI-60 cytotoxicity; format: cell-based, human; conditions: read-out: GI50 (μM) DU-145; NCI-60 Prostate Cancer, 48 h
Description: as §1, §2

NCI-H226 = experiment: NCI-60 cytotoxicity; format: cell-based, human; conditions: NCI-60 Non-Small Cell Lung Cancer, 48 h
Description: as §1, §2

SNB-19 = experiment: NCI-60 cytotoxicity; format: cell-based, human; conditions: NCI-60 CNS Cancer, 48 h
Description: as §1, §2

NCI-H23 = experiment: NCI-60 cytotoxicity; format: cell-based, human; conditions: NCI-60 Non-Small Cell Lung Cancer, 48 h
Description: as §1, §2

MDA-MB-435 = experiment: NCI-60 cytotoxicity; format: cell-based, human; conditions: NCI-60 Melanoma, 48 h
Description: as §1, §2

SN 12C = experiment: NCI-60 cytotoxicity; format: cell-based, human; conditions: NCI-60 Renal Cancer, 48 h
Description: as §1, §2

T-47D = experiment: NCI-60 cytotoxicity; format: cell-based, human; conditions: NCI-60 Breast Cancer, 48 h
Description: as §1, §2

SF-295 = experiment: NCI-60 cytotoxicity; format: cell-based, human; conditions: NCI-60 CNS Cancer, 48 h
Description: as §1, §2

NCI/ADR-RES = experiment: NCI-60 cytotoxicity; format: cell-based, human; conditions: NCI-60 Ovarian Cancer, 48 h
Description: as §1, §2

SK-MEL-28 = experiment: NCI-60 cytotoxicity; format: cell-based, human; conditions: NCI-60 Melanoma, 48 h
Description: as §1, §2

SNB-75 = experiment: NCI-60 cytotoxicity; format: cell-based, human; conditions: NCI-60 CNS Cancer, 48 h
Description: as §1, §2

HT29 = experiment: NCI-60 cytotoxicity; format: cell-based, human; conditions: NCI-60 Colon Cancer, 48 h
Description: as §1, §2

UACC-257 = experiment: NCI-60 cytotoxicity; format: cell-based, human; conditions: NCI-60 Melanoma, 48 h
Description: as §1, §2

U251 = experiment: NCI-60 cytotoxicity; format: cell-based, human; conditions: NCI-60 CNS Cancer, 48 h
Description: as §1, §2

SR = experiment: NCI-60 cytotoxicity; format: cell-based, human; conditions: NCI-60 Leukemia, 48 h
Description: as §1, §2

MDA-MB-468 = experiment: NCI-60 cytotoxicity; format: cell-based, human; conditions: NCI-60 Breast Cancer, 48 h
Description: as §1, §2

T1 sequence (P11387 2-765 limits assumed, one chain of several): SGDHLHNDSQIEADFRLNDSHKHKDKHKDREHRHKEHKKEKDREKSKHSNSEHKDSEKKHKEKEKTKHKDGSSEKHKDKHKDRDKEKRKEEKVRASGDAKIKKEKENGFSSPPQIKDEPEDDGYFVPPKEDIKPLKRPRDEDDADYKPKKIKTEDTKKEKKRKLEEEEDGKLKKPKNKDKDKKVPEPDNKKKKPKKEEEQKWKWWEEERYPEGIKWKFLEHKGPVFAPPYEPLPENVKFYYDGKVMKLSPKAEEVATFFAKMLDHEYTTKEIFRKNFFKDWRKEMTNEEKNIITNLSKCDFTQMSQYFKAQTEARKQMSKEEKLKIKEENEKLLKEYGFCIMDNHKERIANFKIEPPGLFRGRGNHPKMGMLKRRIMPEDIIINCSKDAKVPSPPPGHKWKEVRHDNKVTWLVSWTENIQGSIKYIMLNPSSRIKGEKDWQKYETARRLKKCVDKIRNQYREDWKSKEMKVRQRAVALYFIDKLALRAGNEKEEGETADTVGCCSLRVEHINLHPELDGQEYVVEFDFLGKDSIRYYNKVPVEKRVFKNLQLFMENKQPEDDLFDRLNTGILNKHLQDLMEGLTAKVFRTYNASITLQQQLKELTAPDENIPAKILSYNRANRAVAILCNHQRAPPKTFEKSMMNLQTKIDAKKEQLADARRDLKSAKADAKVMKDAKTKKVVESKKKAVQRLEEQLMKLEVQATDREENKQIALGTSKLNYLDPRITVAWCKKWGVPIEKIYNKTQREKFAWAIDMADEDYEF

CNCCn1c(=O)c2cc(OC)c(OC)cc2c2ccc3cc4c(cc3c21)OCO4 [Compound 50, 2,3-dimethoxy-12-(2-(methylamino)ethyl)-[1,3]dioxolo[4′5′:4,5]benzo[1,2-c]phenanthridin-13(12H)-one]
induction of cellular Top1cc [1]: induced the formation of cellular TOP1 cc in a dose-dependent manner
γH2AX foci [2]: effectively induced γH2AX foci
GI50 (LOX IMVI): 0.0389 µM
GI50 (KM12): 0.238 µM
GI50 (IGROV1): 0.145 µM
GI50 (K-562): 0.0394 µM
GI50 (SF-539): 0.124 µM
GI50 (COLO 205): 0.0605 µM
GI50 (RPMI-8226): 0.0763 µM
GI50 (HS 578T): 0.904 µM
GI50 (NCI-H522): 0.0274 µM
GI50 (UACC-62): 0.0451 µM
GI50 (MDA-MB-231/ATCC): 0.362 µM
GI50 (SF-268): 0.0903 µM
GI50 (CAKI-1): 0.0644 µM
GI50 (A498): 0.127 µM
GI50 (TK-10): 0.316 µM
GI50 (HCT-15): 0.116 µM
GI50 (SK-OV-3): 0.157 µM
GI50 (SK-MEL-2): 0.393 µM
GI50 (PC-3): 0.112 µM
GI50 (786-0): 0.0703 µM
GI50 (OVCAR-4): 0.154 µM
GI50 (MALME-3M): 0.174 µM
GI50 (DU-145): 0.13 µM
GI50 (NCI-H226): 0.172 µM
GI50 (SNB-19): 0.116 µM
GI50 (NCI-H23): 0.0906 µM
GI50 (MDA-MB-435): 0.118 µM
GI50 (SN 12C): 0.171 µM
GI50 (T-47D): 0.0757 µM
GI50 (SF-295): 0.0346 µM
GI50 (NCI/ADR-RES): 0.165 µM
GI50 (SK-MEL-28): 0.573 µM
GI50 (SNB-75): 0.0885 µM
GI50 (HT29): 0.0508 µM
GI50 (UACC-257): 0.122 µM
GI50 (U251): 0.0394 µM
GI50 (SR): 0.0173 µM
GI50 (MDA-MB-468): 0.0599 µM

COc1cc2c(=O)n(CCN)c3c4cc5c(cc4ccc3c2cc1OC)OCO5 [Compound 67, 12-(2-aminoethyl)-2,3-dimethoxy-[1,3]dioxolo[4′,5′:4,5]benzo[1,2-c]phenanthridin-13(12-H)-one]
GI50 (LOX IMVI): 0.246 µM
GI50 (KM12): 1.1 µM
GI50 (IGROV1): 0.5 µM
GI50 (K-562): 0.161 µM
GI50 (SF-539): 1.06 µM
GI50 (COLO 205): 0.29 µM
GI50 (RPMI-8226): 0.257 µM
GI50 (HS 578T): 1.96 µM
GI50 (NCI-H522): 0.0875 µM
GI50 (UACC-62): 0.278 µM
GI50 (MDA-MB-231/ATCC): 1.28 µM
GI50 (SF-268): 0.442 µM
GI50 (CAKI-1): 0.295 µM
GI50 (A498): 1.23 µM
GI50 (TK-10): 1.35 µM
GI50 (HCT-15): 0.42 µM
GI50 (SK-OV-3): 1.24 µM
GI50 (SK-MEL-2): 3.01 µM
GI50 (PC-3): 0.532 µM
GI50 (786-0): 0.464 µM
GI50 (OVCAR-4): 0.782 µM
GI50 (MALME-3M): 0.613 µM
GI50 (DU-145): 0.527 µM
GI50 (NCI-H226): 1.34 µM
GI50 (SNB-19): 0.398 µM
GI50 (NCI-H23): 0.451 µM
GI50 (MDA-MB-435): 0.759 µM
GI50 (SN 12C): 0.739 µM
GI50 (T-47D): 0.368 µM
GI50 (SF-295): 0.279 µM
GI50 (NCI/ADR-RES): 1.01 µM
GI50 (SK-MEL-28): 3.05 µM
GI50 (SNB-75): 0.596 µM
GI50 (HT29): 0.168 µM
GI50 (UACC-257): 1.9 µM
GI50 (U251): 0.26 µM
GI50 (SR): 0.0907 µM
GI50 (MDA-MB-468): 0.157 µM

From patent US12655107B2 (The United States of America, as represented by the …, priority 2018, dated 2026)
